Assay results reported in publication PMC8553829, “Improvement of a synthetic live bacterial therapeutic for phenylketonuria with biosensor-enabled enzyme engineering” (Nature Communications, 2021).

Molecular target: T1, StlA (PAL, phenylalanine ammonia lyase) (Photorhabdus laumondii, UniProt Q7N4T3)
T1 construct: gene plu2234; full-length, untagged; aTc-inducible low-copy plasmid in E. coli Nissle 1917; soluble cell lysate
T1 sequence (Q7N4T3 1-532): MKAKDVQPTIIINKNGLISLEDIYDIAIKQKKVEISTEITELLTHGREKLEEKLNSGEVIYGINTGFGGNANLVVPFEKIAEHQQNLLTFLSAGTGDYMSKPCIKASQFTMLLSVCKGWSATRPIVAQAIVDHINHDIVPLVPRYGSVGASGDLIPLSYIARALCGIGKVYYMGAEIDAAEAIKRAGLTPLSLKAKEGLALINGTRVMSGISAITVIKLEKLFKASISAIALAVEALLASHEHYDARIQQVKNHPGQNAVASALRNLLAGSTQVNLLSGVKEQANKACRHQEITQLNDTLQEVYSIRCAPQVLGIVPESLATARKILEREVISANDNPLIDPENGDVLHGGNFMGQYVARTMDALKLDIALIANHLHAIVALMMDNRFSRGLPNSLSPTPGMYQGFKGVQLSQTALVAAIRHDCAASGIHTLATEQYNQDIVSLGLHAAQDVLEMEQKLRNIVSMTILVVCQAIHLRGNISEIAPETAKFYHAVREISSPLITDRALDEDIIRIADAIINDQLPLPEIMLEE
Experiment: TCA formation followed at A290, nonlinear Michaelis-Menten fit
Type: biochemical
Conditions: soluble lysate of E. coli Nissle (EP2315), 10 µg total protein per well; M9 0.5% glucose, 37 °C
Source text: TCA formation followed at A290, nonlinear Michaelis-Menten fit on StlA (PAL, phenylalanine ammonia lyase)

N[C@@H](Cc1ccccc1)C(=O)O [Phe]
KM (mM Phe): 1.69 ± 0.37 mM
